These results are taken from patent US20210393614A1, “QUINONE REDUCTASE 2 INHIBITORS FOR USE AS NEUROPROTECTIVE AGENTS” (DUKE UNIVERSITY, priority 2018, published 2021).

The conditions of data set [1]: in vivo.
Data set [2] has as its system transient middle cerebral artery (MCA) occlusion. The experiment in a line: Mouse model of transient middle cerebral artery (MCA) occlusion. Format: in vivo.
Data set [3] concerns TBI model of diffuse closed head injury. The data set can be described thus: Murine TBI model of diffuse closed head injury. Particulars: single 25 mg/kg administration, n=12/gp. The format is in vivo. From the text:
The neuroprotective potential of QR2 inhibition was investigated in a murine TBI model of diffuse closed head injury (Laskowitz et al., “Neuroprotective pentapeptide CN-105 is associated with reduced sterile inflammation and improved functional outcomes in a traumatic brain injury murine model.” Sci. Rep. 2017 Apr. 21; 7:46461).

Data set [4] has as its system CPB/DHCA perioperative cerebral injury. The experiment in a line: Rat model of cardiopulmonary bypass (CPB)/deep hypothermic circulatory arrest (DHCA). The format is in vivo, Sprague-Dawley rats. To be noted: for apoptotic and necrotic neurons in cortex and hippocampus: 25 mg/kg, 48 hours after DHCA, FIG. 6, FIG. 7; for decrease in post-operative blood brain barrier permeability (gadolinium chelate, MRI): compared to respective control groups, p<0.05, preliminary results. On the procedure:
Perioperative cerebral injury (PCI) following major cardiovascular surgery using cardiopulmonary bypass (CPB) and deep hypothermic circulatory arrest (DHCA) remains a significant cause of adverse cerebral outcome. […] Cannulas were placed in the tail artery and the right external jugular vein. Animals were then cooled on CPB for 30 minutes, and DHCA was instituted at a pericranial temperature of 16-18° C. […] MRI was performed on day-1 post-operatively, neurological assessments on day 1 and 2 post-operatively, and animals then sacrificed after day 2.

The subject of data set [5] is intracranial hemorrhagic injury. The data set can be described thus: Mouse model of intracranial hemorrhagic injury. The format is in vivo. Particulars: single 25 mg/kg i.p. dose.
The target of a further data set is T1, QR2 (Homo sapiens, UniProt P16083).
T1 sequence (P16083 1-231): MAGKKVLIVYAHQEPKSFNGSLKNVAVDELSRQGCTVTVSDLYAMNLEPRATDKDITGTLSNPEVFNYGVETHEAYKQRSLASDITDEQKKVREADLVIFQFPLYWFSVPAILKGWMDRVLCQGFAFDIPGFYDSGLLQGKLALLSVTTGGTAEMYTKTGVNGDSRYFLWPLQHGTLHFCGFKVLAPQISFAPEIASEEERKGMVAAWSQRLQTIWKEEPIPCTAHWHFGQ
The experiment in a line: Inhibition of QR2 (IC50, Table 1). To be noted: for LiPE (pIC50-clogP): lipophilic efficiency, QR2 pIC50 minus clog P; for IC50: inhibitors of QR2, mean +/− SD. The format is biochemical.

In data set [6] the test system is vascular dementia (BCAS mice). The experiment in a line: Murine model of vascular dementia (BCAS). The format is in vivo. To be noted: for Morris water maze escape latency: versus vehicle, n=10. On the procedure:
Vascular dementia is caused by chronic cerebral hypoperfusion and is characterized clinically by white matter lesions on MRI and a decline in executive function. […] Physiological, cellular, and functional outcomes were determined using a combination of quantitative immunochemistry, MRI, and behavioral tasks including Morris water maze and rotorod.

For data set [7] the following is noted: during therapeutic dosing; cited from earlier work.
Data set [8] concerns permanent MCA occlusion model. To be noted: cited from earlier work.

Take `CNc1ccnc2cc(Cl)ccc12` [7C-4MAQ, 7-chloro-N-methylquinolin-4-amine]: in data set [1], the “LD50 relative to the 25 mg/kg dose” value is reported as “more than 20 times”. The “reductions in cortical stroke volumes relative to those after CQ” value in [2] (equivalent single acute phase dose 25 mg/kg, FIG. 3C) is about 2 ×. For the same compound, in data set [3] (1 month following injury), the “improvement in Morris water maze performance” value stood at 62%. Moreover, in [3], the “improvement over vehicle in rotorod latency” value turned out to be 20%. For the same compound, the “neurological scores at post-op day 1 and 2” value in [4] (25 mg/kg 2 hours before CPB/DHCA, FIG. 8) is on record as “significantly improved neurological scores”. In addition, in data set [4], the “apoptotic and necrotic neurons in cortex and hippocampus” value is “fewer apoptotic and necrotic neurons”; the “decrease in post-operative blood brain barrier permeability (gadolinium chelate, MRI)” value came to 3%. Besides, in [5], the “improvement in motor function (rotorod assessment)” value worked out at 21%. Further, the “LiPE (pIC50-clogP)” value on QR2 was 4.67. The “Morris water maze probe trial, time in target quadrant” value in [6] (p<0.05 group effect) is listed as “significantly more time in the target quadrant”. For the same compound, the “Morris water maze escape latency” value in data set [6] was “decreased escape latencies compared to vehicle controls”.
Regarding `Oc1ccc(CCNc2ccnc3cc(Cl)ccc23)cc1` [Example Compound A, 4-{2-[(7-chloroquinolin-4-yl)amino]ethyl}phenol], on QR2, the half-maximal inhibitory concentration (IC50) stood at 2.7 µM and the “LiPE (pIC50-clogP)” value is on record as 1.65.
On to `COc1cc(NCc2ccccn2)c2ncccc2c1` [Example Compound B, 6-methoxy-N-(pyridin-2-ylmethyl)quinolin-8-amine], for which the “LiPE (pIC50-clogP)” value at QR2 worked out at 4.30.
For `COc1cc(NC(C)c2ccco2)c2ncccc2c1` (stereo not shown) [Example Compound C, N-[1-(furan-2-yl)ethyl]-6-methoxyquinolin-8-amine], at QR2, the IC50 is 0.85 µM and the “LiPE (pIC50-clogP)” value was 3.42.
For `Clc1ccc2c(Nc3ccccn3)ccnc2c1` [Example Compound D, 7-chloro-N-(pyridin-2-yl)quinolin-4-amine], in that order: 0.55 µM and 2.71.
For `CCN(CC)CCCC(C)Nc1ccnc2cc(Cl)ccc12` (stereo not shown) [chloroquine], the “stroke evolution between 4 and 24 hours by DW-MRI” value in [2] (single i.p. 25 mg/kg 90 minutes after ischemia onset) is listed as “reduction in stroke evolution”. The “reduction in overall stroke volume” value in [2] (single i.p. 25 mg/kg 90 minutes after ischemia onset, post-mortem histology at 72 hours) worked out at 55%. Further, in [4], the “apoptotic and necrotic neurons in cortex and hippocampus” value is “fewer apoptotic and necrotic neurons”; the “decrease in post-operative blood brain barrier permeability (gadolinium chelate, MRI)” value stood at 3%. In data set [7], the plasma concentration was under 1000 nM. Besides, the “reduction of stroke volumes” value in data set [8] is given as 60%. For the same compound, the “Morris water maze escape latency” value in data set [6] is “performance profile similar to their N-MCQ counterparts”.

By IC50 is commonly meant the concentration that gives 50% inhibition. Lower therefore signals inhibition by little substance.
